Values of other authors, collected in patent US8629099B2, “Ophthalmic compositions comprising a dipeptide” (Bausch & Lomb Incorporated, priority 2008, dated 2014).

Settings: lower pKa given in text

- pKa values (first value): 2.4
SMILES: NCC(=O)O [glycine]
